# Laboratory results: patent US6730665B1, “Treatment of bone cancer” (Mayo Foundation for Medical Education and Research, priority 1999, dated 2004)
# Legend:
# [1] = tested on: female Fisher 344 rats; experiment: Cortical bone histomorphometry of rat tibia after oral 2ME; assay type: in vivo; settings: 100 mg/kg/day oral gavage 13 days, mean ± SE
# Protocol: All studies were approved by the Institutional Animal Care and Use Committee of the Mayo Clinic, Rochester, Minn. Rats were kept in plastic cages (3 per cage) under standard conditions of a 12 hr dark and 12 hr light cycle with food (Purina Laboratory rodent diet 5001, Ralston-Purina, St. Louis, Mo.) and water ad libitum. Rooms were maintained at a temperature of 24° C.
# Fluorochromes were given […] tail vein.
# Bone histomorphometry Histomorphometric measurements were performed with the OsteoMeasure Analysis System (OsteoMetrics, Atlanta, Ga.), which consisted of a Pentium 1133 computer coupled to a photomicroscope and image analysis system. […] The region of interest was traced, and the line lengths and area bounded by lines were calculated automatically.
# Cortical bone measurements Ground transverse sections, cut at a site just proximal to the tibia-fibula synostosis, were prepared for histomorphometric analysis of cortical bone as described by Merriam, G. R. et al., Steroids, 1980, 136: 1-11. The following values were obtained as described by Turner, R. T. et al., Endocrinology, 1998, 139:3712-3720: 1) cross-sectional bone area; 2) medullary area: 3) cortical bone area: 4) periosteal perimeter; 5) endocortical perimeter; 6) periosteal bone formation rate, calculated as the area of bone between the declomycin label given at the start of the experiment and periosteal perimeter divided by the post-labeling period of 11 days; 7) periosteal mineral apposition rate, an index of osteoblast activity which is calculated as the periosteal bone formation rate divided by the label perimeter; and 8) periosteal label perimeter, an index of osteoblast number, defined as the periosteal perimeter labeled with calcein.
# Statistical Analvses All values are expressed as mean±standard error (SE). Significant differences between groups were determined by Fisher's Protected Least Significant Difference post hoc test for multiple group comparisons following detection of significance by 1-way ANOVA. Significance was considered at p values ≦0.05.
# [2] = tested on: MG63 human osteosarcoma cells; experiment: Cell survival, viable cell count with trypan blue; assay type: cell-based; settings: for cell death: 72 hrs
# Protocol: MG63 and TE85 human osteosarcoma cells, and ROS 17/2.8 rat osteosarcoma cells were grown in DMEM/F12 phenol-red free medium containing 10% charcoal-stripped fetal bovine serum (FBS) and supplemented with 100 units/ml penicillin, 100 μg/ml streptomycin. Cell were incubated at 37° C. under 5% CO2 in air. Cells were plated at 5×10^4 cells per well into 24 well plates containing 1 ml of medium per well. After allowing the cells to attach overnight, media in the wells were replaced with fresh 1 ml medium. Human fetal osteoblasts (hFOB) cells and hFOB cells overexpressing estrogen receptor-alpha (hFOB-ERα) and estrogen receptor-beta (hFOB-ERβ) were grown in DMEM/F12 medium containing FBS, penicillin, streptomycin and Geneticin (300 μg/mL). The laboratory of Dr. B. L. Riggs at Mayo Clinic provided primary human osteoblast (HOB) cells. HOB cells were basically established from cancellous bone obtained as waste from orthopedic procedures and cultured as explants to generate the osteoblast-like monolayers as described by Borke et al., J. Clin. Endocrinol. Metab., 1988, 67:1299-1304. Human FOB cells and hFOB cells stably transfected with estrogen receptors (ERs) were maintained at 34° C., while all other cells were incubated at 37° C. under 5% CO2 in air.
# Estrogen metabolites were diluted 1000 fold to give the final required concentrations in each well, and maintained for 72 hrs. The metabolites 2ME, 2OHE, and E2 were purchased from Sigma Chemical Company (St. Louis, Mo.). Stock solutions for each metabolite were made in 95% ethanol. Cell growth was measured by taking the viable cell count. At the end of metabolite treatment, cells were harvested, stained with trypan blue, and counted under a light microscope.
# MG63 cells were treated with 0, 2, and 10 μM concentrations of 2ME in the presence or absence of 100 nM ICI for 72 hours. The cells were harvested and the viable cell counts were taken after staining with trypan blue.
# [3] = tested on: MG63 cells; experiment: Bone matrix protein mRNA levels by northern blot; assay type: cell-based, human; settings: 10 μM
# Protocol: Time course effects of 2ME on steady-state mRNA levels for bone matrix proteins were determined. MG63 cells in triplicate cultures were treated with 10 μM 2ME. Cells were harvested at the end of 0, 12, 24 and 72 h of treatment and used for RNA isolation. Total RNA isolated from cells was analyzed by northern blot hybridization. Ten μg of RNA sample were denatured by incubation at 52° C. in a solution of 1M glyoxal, 50% dimethyl sulfoxide, and 0.01 M NaH2PO4, and then separated in a 1% agarose gel. RNA separated in agarose gels was transferred to an Amersham Hybond nylon membrane overnight via capillary action in 20× standard saline citrate (SSC) (1×SSC=0.15 M NaCl and 0.015 M sodium citrate, pH 7.0), sodium citrate buffer. The amounts of RNA loaded and transferred were assessed by methylene blue staining of the membranes and hybridization with a [^32P]-labeled cDNA for 18S ribosomal RNA. Membranes were prehybridized for 2 h at 65° C. in buffer containing 50% deionized formamide, 10% dextran sulfate, 5×SSC, 100 μg/ml of heat-denatured single-strand salmon sperm DNA, and 2× Denhardts solution. Hybridization was conducted for 80 min in a buffer containing the above ingredients in addition to a minimum of 10^6 cpm per mL [^32P]-labeled cDNA probe. Labeled type I collagen and osteonectin cDNA were used for probing the blots. The cDNA probes were labeled by random sequence hexanucleotide primer extension using the Megaprime DNA labeling kit from Amersham (Arlington Heights, Ill.). The membranes were washed for 30 min at 45° C. in 2×SSC and for 15 to 60 min in 0.1×SSC at 45° C. The resulting radioactive mRNA bands on the blots were quantitated by Phosphorimager (Molecular Dynamics, Sunnyvale, Calif.).
# [4] = tested on: MG63 cells; experiment: Apoptotic gene mRNA levels by RNase protection assay; assay type: cell-based, human; settings: 10 μM
# Protocol: The changes in expression of the genes that are known to antagonize or promote apoptosis were analyzed by this method. MG63 cells in triplicate cultures were treated with 10 μM 2ME. Cells were harvested at the end of 12, 24, 48 and 72 h of treatment and used for RNA isolation. Total RNA isolated from cells was analyzed by RNase protection assay using apoptosis template set for multiprobes (Pharmingen; San Diego, Calif.). Quantitation of protected RNA fragments was performed by Phosphor Imager analyses and normalized to L32 or GAP levels. The mRNA for the proapoptotic gene bak and bax were increased by 2ME treatment in MG63 cells (FIG. 7). The increase was significant within 12 h of treatment and reached a maximum (2 fold for bak; 2.5 fold for bax) at 48 h, at which time cell death by apoptosis was detected by in situ TUNEL assay.
structure (smiles),measurement,setting,value
"COc1cc2c(cc1O)CC[C@@H]1[C@@H]2CC[C@]2(C)[C@@H](O)CC[C@@H]12 [2ME, 2-methoxyestradiol]",Bone Formation Rate,[1]; cortical (periosteal) bone,5.32 ± 0.47 mm^2 × 10^−3/day
same,Mineral Apposition Rate,[1]; cortical (periosteal) bone,1.34 ± 0.06 μm/day
same,Cortical Area,"[1]; cortical bone, tibia",2.28 ± 0.03
same,Cross-sectional area,"[1]; cortical bone, tibia",2.98 ± 0.04 mm^2
same,Medullary Area,"[1]; cortical bone, tibia",0.70 ± 0.02 mm^2
same,cell survival rate,"[2]; 2 μM, 72 h",21%
same,reduction of MG63 cell survival,"[2]; 2 μM, 72 hours",approximately 80%
same,cell death,[2]; 20 μM,about 95%
same,cell death,[2]; 50 μM,~100%
same,decrease in osteonectin mRNA level,[3]; 12 h,50%
same,decrease in type 1 collagen mRNA level,[3]; 12 h,26%
same,decrease in osteonectin mRNA level,[3]; 24 h,38%
same,decrease in type 1 collagen mRNA level,[3]; 24 h,37%
same,mRNA levels for the bone matrix proteins (in words),[3]; 72 h,returned to normal levels
same,maximum increase of bak mRNA,[4]; 48 h,2 fold
same,maximum increase of bax mRNA,[4]; 48 h,2.5 fold
same,mRNA levels for bak and bax (in words),[4]; 72 h,returned to basal level
